Experimental data: patent US5026703A, “Peptide oxytocin antagonists” (priority 1990, dated 1991)
Read-outs that look alike come from different tables or passages of the source. *1 amine or outer side, *2 acyl side, *3 side chain or, on linkers, in order; H or OH if unused. Where a SMILES comes first, the peptide text is derived from it. [ ]: non-standard residue; d: D form. X12 = C=CCSC(=N[C@H](C(=O)[*:2])[C@@H](C)CC)[C@@H](Cc1ccccc1)N[*:1]; X14 = CCOC(=O)C(C(=O)OCC)C1C=NN([*:1])[C@H](C(=O)[*:2])C1; X6 = CN(C)C[C@H]1C=NN([*:1])[C@H](C(=O)[*:2])C1; X4 = CN(C)CCNC1C=NN([*:1])[C@H](C(=O)[*:2])C1; X10 = O=C1CC[C@@H](C(=O)[*:2])N([*:1])N1; Piz(1,6-dehydro) = O=C(O)[C@@H]1CCC=NN1; X3 = C=C1C=NN([*:1])[C@H](C(=O)[*:2])C1; X7 = CSC1=NN([*:1])[C@H](C(=O)[*:2])CC1; dPiz(1,6-dehydro) = O=C(O)[C@H]1CCC=NN1; X16 = CN1CCC[C@@H](C(=O)[*:2])N1[*:1]; X15 = CN1CCC[C@H](C(=O)[*:2])N1[*:1]; X9 = O=C([C@@H]1C=CC=NN1[*:1])[*:2]; dNMeCha = CN[C@H](CC1CCCCC1)C(=O)O; X5 = O=C([C@@H]1CCCNN1[*:1])[*:2]; X1 = O=C([C@H]1CCCNN1[*:1])[*:2]; dNMeF = CN[C@H](Cc1ccccc1)C(=O)O; dCha = N[C@H](CC1CCCCC1)C(=O)O

Columns and labels:
[1] = molecular target: T1, uterine OT receptors (Rattus norvegicus, UniProt P70536); assay: [3H]OT radioligand binding to uterine OT receptors, crude membrane preparation
T1 construct: from tissue; host or cells: uterus of DES-treated rats, crude membranes
T1 sequence (P70536 1-388): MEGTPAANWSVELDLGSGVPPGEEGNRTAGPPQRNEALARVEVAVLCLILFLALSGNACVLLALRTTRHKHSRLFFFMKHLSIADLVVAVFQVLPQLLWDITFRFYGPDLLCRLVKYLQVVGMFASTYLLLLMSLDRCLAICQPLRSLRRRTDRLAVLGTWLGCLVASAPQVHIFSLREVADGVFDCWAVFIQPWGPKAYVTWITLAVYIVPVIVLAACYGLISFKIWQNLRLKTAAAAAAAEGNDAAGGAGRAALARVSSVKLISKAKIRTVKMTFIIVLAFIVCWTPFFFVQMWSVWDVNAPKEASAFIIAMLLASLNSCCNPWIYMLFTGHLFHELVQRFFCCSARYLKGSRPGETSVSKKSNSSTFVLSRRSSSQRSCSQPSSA
Procedure: The high affinity binding of [^3 H]OT ([tyrosyl, 3,5-[^3 H]OT; 30-60 Ci/mmol; New England Nuclear Boston, Mass.) to uterine OT receptors was based on an assay* using a crude membrane preparation of uteri taken from diethylstilbestrol dipropionate (DES)-treated (0.3 mg/kg, ip; 18-24) rats. Competition studies were conducted at equilibrium (60 min; 22° C.) using 1 nM [^3 H]OT in the following assay buffer: 50 mM Tris-HCl, 5 mM MgCl2, and 0.1% BSA, pH 7.4. Nonspecific binding (10% of the total binding) was determined using 1 μM unlabeled OT and the binding reaction was terminated by filtration through glass fiber filters using a cell harvester (model 7019, Skatron, Inc., Sterling, Va.).
*Fuchs, A-R; Fuchs, F; Soloff, MS. 1985 J. Clin. Endocrinol. Metab. 60:37.

[2] = molecular target: AVP-V2 sites (Rattus norvegicus, UniProt Q00788); assay: [3H]AVP radioligand binding to rat kidney medulla crude membrane preparation (AVP-V2 sites); conditions: rat kidney medulla membranes; 2 nM [3H]AVP; 30 min at 30° C.; read-out: Receptor Binding Results IC50 (nM) [^3 H]-AVP-V2
AVP-V2 sites, sequence (Q00788 whole entry): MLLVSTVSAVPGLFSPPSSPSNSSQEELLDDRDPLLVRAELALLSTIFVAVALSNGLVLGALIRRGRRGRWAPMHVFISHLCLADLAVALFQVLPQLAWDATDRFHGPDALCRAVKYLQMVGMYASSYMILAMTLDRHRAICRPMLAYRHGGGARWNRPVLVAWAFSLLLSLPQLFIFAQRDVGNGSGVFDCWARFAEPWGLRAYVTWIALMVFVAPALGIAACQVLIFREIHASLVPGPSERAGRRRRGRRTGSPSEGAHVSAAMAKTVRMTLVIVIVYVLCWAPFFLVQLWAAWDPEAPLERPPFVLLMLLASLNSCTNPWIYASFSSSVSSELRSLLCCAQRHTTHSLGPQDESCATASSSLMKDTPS
Procedure: (§1) Nonspecific binding (5-10% of the total binding) was determined using 10 μM unlabeled AVP, and the binding reaction was terminated by filtration as described above for the [^3 H]OT binding assay.
(§2) +Butlen, D; Guillon, G; Rajerison, RM; Jard, S; Sawyer, WH; Manning, M. 1978 Mol Pharmacol 14:1006.

[3] = molecular target: AVP-V1 sites (Rattus norvegicus, UniProt P30560); assay: [3H]AVP radioligand binding to male rat liver crude membrane preparation (AVP-V1 sites); conditions: male rat liver membranes; 1 nM [3H]AVP; 30 min at 30° C.; read-out: Receptor Binding Results IC50 (nM) [^3 H]-AVP-V1
AVP-V1 sites, sequence (P30560 whole entry): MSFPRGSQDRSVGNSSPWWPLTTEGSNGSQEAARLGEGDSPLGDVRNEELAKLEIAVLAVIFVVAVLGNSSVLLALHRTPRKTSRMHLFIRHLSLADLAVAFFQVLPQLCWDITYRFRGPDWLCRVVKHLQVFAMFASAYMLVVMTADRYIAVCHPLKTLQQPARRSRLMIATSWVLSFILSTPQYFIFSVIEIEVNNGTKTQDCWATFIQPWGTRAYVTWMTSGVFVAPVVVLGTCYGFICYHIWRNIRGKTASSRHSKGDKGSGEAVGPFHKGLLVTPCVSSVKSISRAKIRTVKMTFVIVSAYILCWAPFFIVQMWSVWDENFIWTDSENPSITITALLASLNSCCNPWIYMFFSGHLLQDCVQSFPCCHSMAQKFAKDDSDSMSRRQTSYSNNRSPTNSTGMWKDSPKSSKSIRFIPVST
Procedure: as §1, §2

[4] = uteri of DES-treated rats, 1 nM [3H]OT, 60 min, 22° C., inhibits specific binding by 50%, read-out: Receptor Binding Results IC50 (nM) [3H]OT

IC50 [2]	IC50 [3]	IC50 [1, 4]	Structure (SMILES)	IC50 [1]
> 10000 nM	> 10000 nM	37 nM	C=C1C=NN2C(=O)[C@H]3CCC=NN3C(=O)[C@H]([C@@H](C)CC)NC(=O)[C@@H](Cc3ccccc3)NC(=O)[C@@H]3CCCN3C(=O)[C@@H](Cc3ccccc3)N(C)C(=O)[C@@H]2C1 [Example 20, cyclo-[D-Phenylalanyl-L-isoleucyl-D-2,3,4,5-tetrahydro-3-pyridazinecarbonyl-5-methylene-L-2,3,4,5,-tetrahydro-3-pyridazinecarbonyl-N-methyl-D-phenylalanyl-L-prolyl]] (cyclo(I[dPiz(1,6-dehydro)][X3][dNMeF]P[dF]))	–
430 nM	200 nM	4.9 nM	CC[C@H](C)[C@@H]1NC(=S)[C@@H](Cc2ccccc2)NC(=S)[C@@H]2CCCN2C(=O)[C@@H](Cc2ccccc2)N(C)C(=O)[C@@H]2CCC=NN2C(=O)[C@H]2CCC=NN2C1=O [Example 11, cyclo-[D-Thiophenylalanyl-L-isoleucyl-D-2,3,4,5-tetrahydro-3-pyridazinecarbonyl-L-2,3,4,5-tetrahydro-3-pyridazinecarbonyl-N-methyl-D-phenylalanyl-L-thioprolyl]]	–
1020 nM	820 nM	27 nM	CC[C@H](C)[C@@H]1NC(=O)[C@@H](Cc2ccccc2)NC(=O)[C@@H]2CCCN2C(=O)[C@@H](Cc2ccccc2)N(C)C(=O)[C@@H]2CCC(SC)=NN2C(=O)[C@H]2CCC=NN2C1=O [Example 5, cyclo-[D-Phenylalanyl-L-isoleucyl-D-2,3,4,5-tetrahydro-3-pyidazinecarbonyl-L-2,3,4,5-tetrahydro-6-methylthio-3-pyridazinecarbonyl-N-methyl-D-phenylalanyl-L-prolyl]] (cyclo(I[dPiz(1,6-dehydro)][X7][dNMeF]P[dF]))	–
2800 nM	1850 nM	7.8 nM	CC[C@H](C)[C@@H]1NC(=O)[C@@H](Cc2ccccc2)NC(=O)[C@@H]2CCCN2C(=O)[C@@H](Cc2ccccc2)N(C)C(=O)[C@@H]2C[C@@H](CN(C)C)C=NN2C(=O)[C@H]2CCC=NN2C1=O [Example 18, cyclo-[D-Phenylalanyl-L-isoleucyl-D-2,3,4,5-tetrahydro-3-pyridazinecarbonyl-trans-5-(dimethylamino)methyl-L-2,3,4,5,-tetrahydro-3-pyridazinecarbonyl-N-methyl-D-phenylalanyl-L-prolyl] monoacetate] (cyclo(I[dPiz(1,6-dehydro)][X6][dNMeF]P[dF]))	–
> 10000 nM	> 10000 nM	710 nM	C=CCSC1=N[C@@H]([C@@H](C)CC)C(=O)N2N=CCC[C@@H]2C(=O)N2N=CCC[C@H]2C(=O)N(C)[C@H](Cc2ccccc2)C(=O)N2CCC[C@H]2C(=O)N[C@@H]1Cc1ccccc1 [Example 12, cyclo-[(R)-N-(2-amino-3-phenyl-1-(2-propenylthio)-propylidene)-L-isoleucyl-D-2,3,4,5-tetrahydro-3-pyridazinecarbonyl-L-2,3,4,5-tetrahydro-3-pyridazine-carbonyl-N-methyl-D-phenylalanyl-L-prolyl]] (cyclo(P[X12][dPiz(1,6-dehydro)][Piz(1,6-dehydro)][dNMeF]))	–
> 1000 nM	> 1000 nM	3.6 nM	C=C1C=NN2C(=O)[C@H]3CCC=NN3C(=O)[C@H]([C@@H](C)CC)NC(=S)[C@@H](Cc3ccccc3)NC(=O)[C@@H]3CCCN3C(=O)[C@@H](Cc3ccccc3)N(C)C(=O)[C@@H]2C1 [Example 19, cyclo-[D-Thiophenylalanyl-L-isoleucyl-D-2,3,4,5-tetrahydro-3-pyridazinecarbonyl-5-methylene-L-2,3,4,5-tetrahydro-3-pyridazinecarbonyl-N-methyl-D-phenylalanyl-L-prolyl]]	–

The remaining lines, values behind:

Structure (SMILES)	IC50 [2]	IC50 [3]	IC50 [1, 4]	IC50 [1]
CC[C@H](C)[C@@H]1NC(=O)[C@@H](Cc2ccccc2)NC(=O)[C@@H]2CCCN2C(=O)[C@@H](Cc2ccccc2)N(C)C(=O)[C@@H]2CCCN(C)N2C(=O)[C@H]2CCCN(C)N2C1=O [Example 6, cyclo-[D-Phenylalanyl-L-isoleucyl-D-hexahydro-1-methyl-3-pyridazinecarbonyl-L-hexahydro-1-methyl-3-pyridazinecarbonyl-N-methyl-D-phenylalanyl-L-prolyl]] (cyclo(I[X15][X16][dNMeF]P[dF]))	–	–	–	6250 nM
CC[C@H](C)[C@@H]1NC(=O)[C@@H](Cc2ccccc2)NC(=O)[C@@H]2CCCN2C(=O)[C@@H](Cc2ccccc2)N(C)C(=O)[C@@H]2CCC(=O)NN2C(=O)[C@H]2CCCNN2C1=O [Example 4, cyclo-[D-Phenylalanyl-L-isoleucyl-D-hexahydro-3-pyridazinecarbonyl-L-hexahydro-6-oxo-3-pyridazinecarbonyl-N-methyl-D-phenylalanyl-L-prolyl]] (cyclo(I[X1][X10][dNMeF]P[dF]))	18900 nM	13900 nM	–	217 nM
CC[C@H](C)[C@@H]1NC(=O)[C@@H](Cc2ccccc2)NC(=O)[C@@H]2CCCN2C(=O)[C@@H](Cc2ccccc2)N(C)C(=O)[C@@H]2CC(NCCN(C)C)C=NN2C(=O)[C@H]2CCC=NN2C1=O (stereo partly drawn) [Example 16, cyclo-[D-Phenylalanyl-L-isoleucyl-D-2,3,4,5-tetrahydro-3-pyridazinecarbonyl-5-((2-dimethylamino)ethylamino)-L-2,3,4,5,-tetrahydro-3-pyridazinecarbonyl-N-methyl-D-phenylalanyl-L-prolyl] (trifluoroacetate) (High Rf isomer)] (cyclo(I[dPiz(1,6-dehydro)][X4][dNMeF]P[dF]))	7300 nM	930 nM	220 nM	–
CC[C@H](C)[C@@H]1NC(=O)[C@@H](CC2CCCCC2)NC(=O)[C@@H]2CCCN2C(=O)[C@@H](CC2CCCCC2)N(C)C(=O)[C@@H]2CCC=NN2C(=O)[C@H]2CCC=NN2C1=O [Example 2, cyclo-[D-3-Cyclohexylalanyl-L-isoleucyl-D-2,3,4,5-tetrahydro-3-pyidazinecarbonyl-L-2,3,4,5-tetrahydro-3-pyridazinecarbonyl-3-cyclohexyl-N-methyl-D-alanyl-L-prolyl]] (cyclo(I[dPiz(1,6-dehydro)][Piz(1,6-dehydro)][dNMeCha]P[dCha]))	–	–	94 nM	–
CC[C@H](C)[C@@H]1NC(=O)[C@@H](Cc2ccccc2)NC(=O)[C@@H]2CCCN2C(=O)[C@@H](Cc2ccccc2)N(C)C(=O)[C@@H]2CCC(=O)NN2C(=O)[C@H]2CCC=NN2C1=O [Example 3, cyclo-[D-Phenylalanyl-L-isoleucyl-D-2,3,4,5-tetrahydro-3-pyridazinecarbonyl-L-hexahydro-6-oxo-3-pyridazinecarbonyl-N-methyl-D-phenylalanyl-L-prolyl]] (cyclo(I[dPiz(1,6-dehydro)][X10][dNMeF]P[dF]))	17000 nM	4700 nM	20 nM	–
CC[C@H](C)[C@@H]1NC(=O)[C@@H](CC2CCCCC2)NC(=O)[C@@H]2CCCN2C(=O)[C@@H](CC2CCCCC2)N(C)C(=O)[C@@H]2CCCNN2C(=O)[C@H]2CCCNN2C1=O [Example 1, cyclo-[D-3-Cyclohexylalanyl-L-isoleucyl-D-hexahydro-3-pyridazinecarbonyl-L-hexahydro-3-pyridazinecarbonyl-3-cyclohexyl-N-methyl-D-alanyl-L-prolyl]] (cyclo(I[X1][X5][dNMeCha]P[dCha]))	14800 nM	2400 nM	725 nM	–
CCOC(=O)C(C(=O)OCC)C1C=NN2C(=O)[C@H]3CCC=NN3C(=O)[C@H]([C@@H](C)CC)NC(=O)[C@@H](Cc3ccccc3)NC(=O)[C@@H]3CCCN3C(=O)[C@@H](Cc3ccccc3)N(C)C(=O)[C@@H]2C1 (stereo partly drawn) [Example 17, cyclo-[D-Phenylalanyl-L-isoleucyl-D-2,3,4,5-tetrahydro-3-pyridazinecarbonyl-5-(2-ethoxy-1-(ethoxycarbonyl)-2-oxoethyl)-L-2,3,4,5,-tetrahydro-3-pyridazinecarbonyl-N-methyl-D-phenylalanyl-L-prolyl] (trifluoroacetate)] (cyclo(I[dPiz(1,6-dehydro)][X14][dNMeF]P[dF]))	2400 nM	3000 nM	200 nM	–
CC[C@H](C)[C@@H]1NC(=O)[C@@H](Cc2ccccc2)NC(=O)[C@@H]2CCCN2C(=O)[C@@H](Cc2ccccc2)N(C)C(=O)[C@@H]2C=CC=NN2C(=O)[C@H]2CCC=NN2C1=O [Example 8, cyclo-[D-Phenylalanyl-L-isoleucyl-D-2,3,4,5-tetrahydro-3-pyridazinecarbonyl-L-2,3-dihydro-3-pyridazine-carbonyl-N-methyl-D-phenylalanyl-L-prolyl]] (cyclo(I[dPiz(1,6-dehydro)][X9][dNMeF]P[dF]))	1350 nM	1410 nM	20 nM	–
